From the supplement of paper PMC10307832

Assays:
Assay in all cases: relative viability (nuclei count vs DMSO), 5 days (fraction); higher = more cells survive
[1] = compound: CC1=C(C(=NN1)C)CC2=C(C3=C(S2)N(C(=O)N(C3=O)C)CC(C)C)C(=O)N4C[C@@H](CO4)O
In short: (§1)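 Vehicle-anchored 1536-well plates of lung cancer cell lines, held overnight at 37 °C, were pinned with five library-drug doses (not always all listed) spaced by √10. No medium change followed over the next 5 days, after which the cells were fixed, permeabilised and Hoechst-stained together and imaged at 4×. Nuclei were counted with MetaXpress, and viability is treated-well nuclei over vehicle-well nuclei, taken as a median across plates. Plates passed with control CV below 25% and at least one doubling.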

IDH-C35 = compound: Cc1ccccc1C(C(=O)NC1CCCCC1)N(C(=O)Cn1ccnc1C)c1cccc(F)c1 [IDH-C35]
In short: as §1

[2] = compound: CC1=C(C(=NN1)C)CC2=C(C3=C(S2)N(C(=O)N(C3=O)C)CC(C)C)C(=O)N4C[C@@H](CO4)O + CC1(C)CCC(c2ccc(Cl)cc2)=C(CN2CCN(c3ccc(C(=O)NS(=O)(=O)c4ccc(N[C@H](CCN5CCOCC5)CSc5ccccc5)c(S(=O)(=O)C(F)(F)F)c4)cc3)CC2)C1 [Navitoclax] (partner 0.5 µM)
In short: (§2)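 Lung cancer cell lines in 1536-well plates were dosed by pin tool the day after seeding, either with one drug alone or with a fixed anchor-drug dose plus five library-drug doses (not always all listed) in √10 steps. After 5 days, cells were fixed and their nuclei stained in one step (final 0.05% Triton X-100, 1% formaldehyde, 1 ug/ml Hoechst), then counted on 4× images. Relative viability is the nuclei count in treated wells divided by that in vehicle wells. Values are medians of duplicate plates.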

IDH-C35 + Phenformin = compound: Cc1ccccc1C(C(=O)NC1CCCCC1)N(C(=O)Cn1ccnc1C)c1cccc(F)c1 [IDH-C35] + N=C(N)NC(=N)NCCc1ccccc1 [Phenformin] (partner 250 µM)
In short: as §2

Cell Line | relative viability ([1]; 0.0025 µM) | relative viability ([1]; 0.007906 µM) | relative viability ([1]; 0.025 µM) | relative viability ([1]; 0.07906 µM) | relative viability ([1]; 0.25 µM) | relative viability (IDH-C35; 0.08 µM) | relative viability (IDH-C35; 0.253 µM) | relative viability (IDH-C35; 0.8 µM) | relative viability (IDH-C35; 2.53 µM) | relative viability (IDH-C35; 8 µM) | relative viability ([2]; first compound 0.0025 µM) | relative viability ([2]; first compound 0.007906 µM) | relative viability ([2]; first compound 0.025 µM) | relative viability ([2]; first compound 0.07906 µM) | relative viability ([2]; first compound 0.25 µM) | relative viability (IDH-C35 + Phenformin; first compound 0.08 µM) | relative viability (IDH-C35 + Phenformin; first compound 0.253 µM) | relative viability (IDH-C35 + Phenformin; first compound 0.8 µM) | relative viability (IDH-C35 + Phenformin; first compound 2.53 µM) | relative viability (IDH-C35 + Phenformin; first compound 8 µM)
BEN | 0.885 | 0.949 | 0.735 | 0.788 | 0.865 | 0.964 | 0.97 | 0.904 | 0.972 | 1.01 | 0.0618 | 0.0913 | 0.0867 | 0.0968 | 0.0771 | 0.292 | 0.246 | 0.257 | 0.279 | 0.282
EMC-BAC-2 | 1.07 | 1.11 | 0.898 | 0.995 | 1.05 | 0.962 | 0.988 | 1 | 0.987 | 1.03 | 1.16 | 1.14 | 1.16 | 1.16 | 1.38 | 0.5 | 0.584 | 0.583 | 0.508 | 0.493
LU99A | 0.968 | 0.995 | 0.887 | 1.03 | 0.893 | 1.04 | 0.992 | 0.895 | 0.919 | 0.964 | 0.74 | 0.887 | 0.76 | 0.845 | 0.458 | 1.04 | 0.941 | 0.919 | 0.776 | 0.858
NCI-H2170 | 0.973 | 1.02 | 0.966 | 0.906 | 0.965 | 0.971 | 0.948 | 1.02 | 0.867 | 0.983 | 0.613 | 0.747 | 0.556 | 0.612 | 0.543 | 0.393 | 0.415 | 0.403 | 0.425 | 0.412
NCI-H2347 | 1.11 | 1.2 | 0.949 | 0.983 | 1.04 | 1.04 | 1.06 | 0.937 | 1.02 | 0.997 | 0.86 | 0.691 | 0.828 | 0.69 | 0.771 | 0.421 | 0.516 | 0.362 | 0.474 | 0.241
NCI-H1993 | 1.05 | 0.91 | 0.963 | 0.843 | 0.884 | 0.843 | 0.955 | 0.891 | 1.02 | 0.955 | 0.949 | 0.959 | 0.92 | 0.94 | 0.925 | 0.56 | 0.508 | 0.476 | 0.555 | 0.524
NCI-H322M | 0.98 | 1.02 | 0.948 | 1.02 | 0.919 | 0.92 | 0.973 | 0.933 | 0.963 | 1 | 1.22 | 1.18 | 1.18 | 1.29 | 1.06 | 0.761 | 0.798 | 0.772 | 0.749 | 0.743
NCI-H838 | 0.992 | 0.979 | 0.876 | 0.84 | 0.856 | 1.07 | 0.935 | 0.978 | 1.01 | 0.981 | 1.22 | 1.24 | 1.12 | 1.16 | 1.25 | 0.729 | 0.599 | 0.502 | 0.659 | 0.543
HARA | 1.03 | 1.05 | 1.01 | 1.02 | 1 | 1 | 0.949 | 0.915 | 1.03 | 0.931 | 1.26 | 1.2 | 1.07 | 1.1 | 1.15 | 0.522 | 0.461 | 0.435 |  | 0.386
NCI-H2087 | 1.05 | 1.13 | 0.951 | 0.92 | 1.26 | 1.2 | 1.07 | 0.945 | 0.898 | 0.931 | 1.05 | 0.979 | 0.953 | 1.1 | 1.16 | 0.482 | 0.433 | 0.398 |  | 0.432
NCI-H1437 | 1.05 | 0.981 | 0.953 | 0.996 | 0.991 | 1.04 | 1.02 | 0.993 | 0.995 | 0.959 | 1.16 | 1.2 | 1.08 | 1.1 | 1.09 | 0.334 | 0.288 | 0.336 | 0.322 | 0.274
NCI-H1792 | 0.933 | 0.773 | 0.751 | 0.744 | 0.736 | 0.832 | 0.862 | 0.974 | 0.969 | 1.13 | 0.608 | 0.572 | 0.445 | 0.509 | 0.524 | 0.257 | 0.258 | 0.244 | 0.483 | 0.334
ChaGo-K-1 | 0.989 | 0.98 | 0.901 | 0.969 | 1.06 | 0.994 | 0.941 | 0.993 | 0.966 | 1.02 | 0.996 | 0.903 |  | 1.21 | 1.5 | 0.482 | 0.473 | 0.511 | 0.465 | 0.531
COR-L23 | 0.965 | 1.08 | 0.919 | 0.933 | 0.976 | 1.1 | 1.08 | 1.01 | 0.995 | 0.978 | 0.783 | 0.984 | 0.777 | 0.781 | 0.845 | 0.478 | 0.42 | 0.423 | 0.421 | 0.382
COR-L 105 | 0.952 | 0.976 | 0.897 | 0.897 | 1.02 | 0.897 | 0.921 | 0.926 | 0.863 | 0.91 | 0.969 | 0.768 | 0.682 | 0.561 | 0.657 | 0.479 | 0.479 | 0.555 | 0.484 | 0.457
